For the data set, the system named is subjects with TRD. Nature of the data set: Clinician-Administered Dissociative States Scale (CADSS). The protocol:
The Investigational Medicinal Product (IMP) R(−)-ketamine hydrochloride in sterile water for intravenous injection was investigated as an […] treatment of TRD. The International Union of Pure and Applied Chemistry (IUPAC) name is of the IMP is (2R)-2-(2-chlorophenyl)-2-(methylamino)cyclohexan-1-one. Subjects received the solution at either 30 mg or 60 mg dose, or a placebo. The IMP or placebo was administered on Day 1 as a single IV infusion via an electronic infusion pump over 40 minutes. The duration of study participation for each subject was up to 29 days including a screening period, a 3-day in-clinic visit, and 2 follow-up visits. 101 subjects were enrolled in approximately 20 study centers in the EU and the US.
The CADSS was to assess the alertness or dissociative state of subjects administered R(−)-ketamine. The study staff evaluated the subject's degree of dissociation by administering the CADSS questionnaire pre-dose; at 40 minutes post-dose (at EoI); and at 2 and 4 hours post-dose.

The mark [1] stands for this setting: 30 mg, 40 min post infusion start, n 33.
[2] abbreviates: 30 mg, 2 hours post infusion start, n 33.
[3] abbreviates: 30 mg, 4 hours post infusion start, n 33.
[4] abbreviates: 30 mg, 6 hours post infusion start, n 10.
Setting [5] is: 30 mg, to 40 min post infusion start, n 33.
[6] abbreviates: 30 mg, to 2 hours post infusion start, n 33.
The mark [7] stands for this setting: 30 mg, to 4 hours post infusion start, n 33.
Where [8] appears, read: 60 mg, 40 min post infusion start, n 35.
Where [9] appears, read: 60 mg, 2 hours post infusion start, n 35.
Where [10] appears, read: 60 mg, 4 hours post infusion start, n 34.
The mark [11] stands for this setting: 60 mg, 6 hours post infusion start, n 11.
Setting [12] is: 60 mg, to 40 min post infusion start, n 35.
[13] abbreviates: 60 mg, to 2 hours post infusion start, n 35.
The mark [14] stands for this setting: 60 mg, to 4 hours post infusion start, n 34.

This note sets out measurements from US20260027068A1, “METHODS OF ADM[…]-KETAMINE” (Perception Neuroscience, Inc., priority 2022, published 2026).

As for `CN[C@@]1(c2ccccc2Cl)CCCCC1=O.Cl` [R(−)-ketamine, (2R)-2-(2-chlorophenyl)-2-(methylamino)cyclohexan-1-one], for the setting “30 mg (n = 33)”, the “Subjects with post-baseline CADSS >4 and change from baseline >0, number” value came to 12 n; the “Subjects with post-baseline CADSS >4 and change from baseline >0, percent” value is given as “(36.4) %”. Besides, for the setting “60 mg (n = 35)”, the “Subjects with post-baseline CADSS >4 and change from baseline >0, number” value worked out at 8 n; the “Subjects with post-baseline CADSS >4 and change from baseline >0, percent” value is “(22.9) %”.
Regarding `CN[C@@]1(c2ccccc2Cl)CCCCC1=O` [PCN 101], the “CADSS score, Mean” value is, setting by setting: under setting [1], 3.9; under setting [2], 1.1; under setting [3], 0.4; under setting [4], 0.0; under setting [8], 4.3; under setting [9], 1.1. In addition, the “CADSS score, Mean” value under setting [10] came to 0.3 and the “CADSS score, Mean” value under setting [11] was found to be 0.0. Moreover, the “CADSS score, Median” value runs as follows: under setting [1], 2.0; under setting [2], 0.0; under setting [3], 0.0; under setting [4], 0.0; under setting [8], 0.0; under setting [9], 0.0. Also, the “CADSS score, Median” value is, setting by setting: under setting [10], 0.0; under setting [11], 0.0. Besides, the “CADSS change from baseline, Mean” value reads like this: under setting [5], 3.9; under setting [6], 1.1; under setting [7], 0.4; (30 mg, to 6 hours, n 10) −0.1; under setting [12], 4.0; under setting [13], 0.8. For the same compound, the “CADSS change from baseline, Mean” value is on record as −0.0 under setting [14] and 0.0 (60 mg, to 6 hours, n 11). Also, the “CADSS change from baseline, Median” value reads like this: under setting [5], 2.0; under setting [6], 0.0; under setting [7], 0.0; (30 mg, to 6 hours, n 10) 0.0; under setting [12], 0.0; under setting [13], 0.0. Further, the “CADSS change from baseline, Median” value was determined as 0.0 under setting [14] and 0.0 (60 mg, to 6 hours, n 11).
